From US7250397B2, “Antiarrhythmic peptides” (Zealand Pharma A/S, priority 2000, dated 2007)

Tests used:
[1] = tested on: isolated guinea pig myocytes; test: Intercellular conductance Gj (GJIC), double patch clamp of cardiomyocyte pairs; assay type: cell-based; details: 10^−8 M
Experimental: Cell preparation: Cells were isolated from guinea pig hearts by perfusion with collagenase according to the Langendorf method. In brief, guinea pigs were heparinised with an intraperitoneal injection of heparin (1000 IU/kg). After 30 minutes the animal was sacrificed by a blow to the neck followed by cutting the spine at the neck. The chest was opened and the aorta cannulated. Then the cannula was fixed to the aorta by a ligature, exised and perfused with Tyrodes solution for a couple of minutes. The Tyrodes solution had the following composition in mM: Na^+ 135.33, K^+ 4, Cl^− 145, PO4^− 0.33, Mg^2+ 1, Ca^2+ 2, Hepes 10, Glucose 10, pH 7.4. All perfusion media were bubled by 100% oxygen. […]. Then the heart was perfused with high K^+ solution with 0.6 mg/ml collagenase, this was done for 10-15 minutes judged from the apperance of the heart. The atria were cut off, the ventricles minced, whereafter the pieces were stirred in the collagenase solution by gently bubbling with 100% oxygen. […]
Where Ip,pulse and Ip,rest represent the current in the passive cell during the pulse and before the pulse respectively, and Up and Ua represent the voltage of the passive and active cell. […] However, the change in Gj value to a standardized intervention like a drug can be analysed by comparing the relative changes in Gj.

[2] = tested on: phospho-inositol turnover in neonatal rat cardiomyocytes; test: Phosphoinositol turnover in rat primary cardiomyocytes; assay type: cell-based; details: 100 nM; control conditions
Experimental: Neonatal Wistar rats (1-2 days old) are used. Hank's calcium- and magnesium-free balanced salt solution, buffered with 10 mM HEPES is used for washing during cell separation procedures. The hearts are excised, the ventricles isolated and the tissue cut into small pieces. The myocardial cells are isolated by stepwise enzymatic degradation with collagenase 0.05%, as described by^[35]. After repeated rounds of centrifugation and washing, the precipitated cells are resuspended in culture medium M199 with Earle's salt, 10% NCS, penicillin (75 U/mL), and streptomycin (75 U/mL) and pre-plated in a Petri dish for 90 minutes. The non-adherent cells are collected in the culture medium and plated in multidishes at 2.5*10^5 cells/well. The cultures are kept in a water-saturated CO2-incubator at 37° C. The cardiomyocyte cultures are used for analyses after 6-7 days.
Cardiomyocyte cultures are incubated for 48 hours in culture medium containing […] myo-[2-^3H]inositol to label the inositol phospholipids. On the day of analysis the medium is replaced by a buffer solution containing lithium and incubated at 37° C., as described by Meier et al.^[36]. After at least five minutes this buffer is replaced by the same volume of buffer containing test compound and incubated for exactly 20 minutes. The reaction is stopped by rapid replacement of the buffer by ice cold 4% v/v perchloric acid (PCA) and incubation for at least 20 minutes at 0° C. The PCA-extract is neutralised and the [^3H]inositol phosphates are separated by anion-exchange chromatography using Amprep™ columns containing 100 mg SAX Quaternary amine. The [^3H]inositol mono-phosphates are eluted and radioactivity in the fraction measured by liquid scintillation counting.
Before adding test substances to the cultures, the cells are depleted of glucose and oxygen by incubating them in a N2-atmosphere in glucose-free lithium-buffer for 10 minutes at 37° C. Control cells are incubated likewise only at normal atmospheric conditions and in a buffer containing glucose.

[3] = tested on: isolated perfused rabbit hearts; test: Isolated perfused rabbit hearts (Langendorff), APD90 dispersion

## Ac-D-Tyr-D-Pro-D-4Hyp-Gly-D-Ala-Gly-NH2 [Compound 2]
[1]
  time of stimulation until steady-state level of Gj: about 400 seconds
[2]
  effect on noradrenaline (300 nM) induced increase in phospho-inositol turnover: no further effect
[3]
  increase in APD90 dispersion during hypokalemic, acute myocardial ischemia: prevented
